Measurements as given in doi:10.1101/2022.12.11.519956v1 (biorxiv, 2022).

Target: T1, SauUSI (Staphylococcus aureus, UniProt A0A0H2XK17)
T1 sequence (A0A0H2XK17 1-953): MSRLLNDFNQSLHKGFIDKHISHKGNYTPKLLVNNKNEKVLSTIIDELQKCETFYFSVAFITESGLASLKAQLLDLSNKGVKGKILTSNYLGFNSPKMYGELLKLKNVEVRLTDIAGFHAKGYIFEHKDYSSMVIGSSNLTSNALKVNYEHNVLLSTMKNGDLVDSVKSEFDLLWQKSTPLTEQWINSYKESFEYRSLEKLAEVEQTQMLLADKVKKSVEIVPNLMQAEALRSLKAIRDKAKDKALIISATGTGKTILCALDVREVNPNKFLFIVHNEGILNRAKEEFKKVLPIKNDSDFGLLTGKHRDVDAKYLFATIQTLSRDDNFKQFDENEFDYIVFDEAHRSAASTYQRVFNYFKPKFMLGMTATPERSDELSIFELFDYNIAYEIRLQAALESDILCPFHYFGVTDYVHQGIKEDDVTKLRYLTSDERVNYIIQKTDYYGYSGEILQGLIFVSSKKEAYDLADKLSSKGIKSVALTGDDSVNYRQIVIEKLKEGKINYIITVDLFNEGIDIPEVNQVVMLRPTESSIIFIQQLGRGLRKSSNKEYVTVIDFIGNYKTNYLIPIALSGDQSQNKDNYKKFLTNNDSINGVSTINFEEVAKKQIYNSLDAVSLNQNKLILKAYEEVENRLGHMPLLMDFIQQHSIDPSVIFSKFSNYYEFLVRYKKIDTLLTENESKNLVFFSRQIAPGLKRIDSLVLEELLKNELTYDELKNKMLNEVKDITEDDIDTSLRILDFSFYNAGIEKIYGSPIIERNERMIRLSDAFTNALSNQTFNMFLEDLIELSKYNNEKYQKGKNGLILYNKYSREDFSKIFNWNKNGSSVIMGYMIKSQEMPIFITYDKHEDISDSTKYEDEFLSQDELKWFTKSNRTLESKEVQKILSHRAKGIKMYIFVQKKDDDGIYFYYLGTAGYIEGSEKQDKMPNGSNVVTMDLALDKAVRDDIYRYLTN
Test: biochemical

Structure (SMILES): Nc1ncnc2c1ncn2[C@@H]1O[C@H](COP(=O)(O)OP(=O)(O)OP(=O)(O)O)[C@@H](O)[C@H]1O [ATP]
- IC50: ~760 µM
